Patent publication US9695219B2, “Polypeptide having antibacterial activity and angiogenesis-inducing activity and wound-healing drug containing said polypeptide” (priority 2009, dated 2017)
Values after ≈ are worked out from the molar mass of the structure shown. Blank lines part the entries; values can stand above or below the compound they belong to. Where a SMILES comes first, the peptide text is derived from it. Where no end group is shown, it is not given here. [ ]: non-standard residue; d: D form.

Experiments:
[1] = tested on: Staphylococcus epidermidis; assay: MIC measurement, broth microdilution; type: cell-based; conditions: 37° C. for 20 hours, tested twice, first/second value where not matched
Description: (§1) Further, with respect to not only the above-described strains but also various other strains, the “minimum inhibitory concentration (MIC)” was measured as follows. MIC is the lowest concentration of an agent that may inhibit the growth of a bacterium. MIC is used as a parameter for the efficacy of an antibacterial agent, for the strength of bacterial sensitivity, or the like. The bacteria can grow (proliferate) when the concentration is not higher than MIC, and cannot grow when the concentration is higher than MIC. Its measurement is carried out according to a method defined as a standard method by Japanese Society of Chemotherapy or CLINICAL AND LABORATORY […] (CLSI), but, in this Example, its measurement was carried out by a broth microdilution method in accordance with “M100-S17/M7-A7” (Performance Standards for Antimicrobial Susceptibility Testing; Seventeenth Informational Supplement, Vol. 27 No. 1) published by CLSI on January, 2007. That is, sensitivity test of agents was carried out using a microtiter plate or test tubes.
(§2) The bacteria were cultured in liquid media for 4 to 6 hours, and thereafter absorbances at A600 were measured. Bacterial suspensions were diluted with Mueller-Hinton broth (MHB) according to McFarland #0.5. Each strain was added so as to attain about 10^5 CFU/ml (final concentration). Each peptide was prepared to an optional concentration, and the solutions were serially diluted from the concentration. The polypeptide at each concentration stage was added to a microplate or test tubes, and the bacterial suspension was added thereto. Chloramphenicol, amphotericin B, ciprofloxacin, meropenem (MEPM), ciprofloxacin (CPFX), tobramycin (TOB) and oxacillin (OX) were used as positive controls. The plate was incubated at 37° C. for 20 hours, and the lowest concentration where bacterial growth was inhibited was regarded as the minimum inhibitory concentration.

MRSA (clinical strain 1) = assay: microbe, parasite or virus in culture; type: cell-based; conditions: Staphylococcus aureus, 37° C. for 20 hours, tested twice, first/second value where not matched
Description: as §1, §2

Staphylococcus aureus = assay: microbe, parasite or virus in culture; type: cell-based; conditions: 37° C. for 20 hours, tested twice, first/second value where not matched
Description: as §1, §2

MSSA (clinical strain 2) = assay: microbe, parasite or virus in culture; type: cell-based, Staphylococcus aureus; conditions: Staphylococcus aureus, MSSA; 37° C. for 20 hours; tested twice, first/second value where not matched
Description: as §1, §2

MSSA (clinical strain 1) = assay: microbe, parasite or virus in culture; type: cell-based, Staphylococcus aureus; conditions: 37° C. for 20 hours; tested twice, first/second value where not matched
Description: as §1, §2

MRSA (clinical strain 2) = assay: microbe, parasite or virus in culture; type: cell-based, Staphylococcus aureus; conditions: Staphylococcus aureus, MRSA; 37° C. for 20 hours; tested twice, first/second value where not matched
Description: as §1, §2

[2] = Antibacterial activity, ATP assay (BacTiter-Glo); type: cell-based, Enterobacter aerogenes; conditions: Table 7, mean values; peptides 10 μg/mL, TOB 4.0, OX 4.0, MEPM 0.5 μg/mL; 37° C. 3 hours; relative to negative control; read-out: Viability, Enterobacteria (2)
Description: The antibacterial activity of each of SR-08 and SR-07 polypeptides was measured using an ATP assay method. That is, using BacTiter-Glo Microbial Cell Viability Assay kit available from PROMEGA, the antibacterial activity of the peptides was evaluated from the viability of bacteria. In other words, ATP amount in viable bacteria in cases where the concentration of the peptides was 10 μg/mL was measured using a microtiter plate or test tubes. As controls, tobramycin (TOB), oxacillin (OX) and meropenem (MEPM) were used at the concentrations as respectively shown in Table 6 below.
With respect to the strains, Escherichia coli: ATCC 25922 (Escherichia coli ATCC 25922), Pseudomonas aeruginosa: ATCC 27853 (Pseudomonas aeruginosa ATCC 27853), Staphylococcus aureus: ATCC29213 (Staphylococcus aureus ATCC29213), Klebsiella pneumoniae: JCM 1662 (Klebsiella pneumoniae JCM 1662), enterobacteria (1): JCM 1232 (Enterobacter cloacae JCM 1232), and enterobacteria (2): JCM 1235 (Enterobacter aerogenes JCM 1235), were used.
The bacteria were cultured in media for 3 to 4 hours, and thereafter absorbances at A600 were measured. Bacterial suspensions were diluted with Mueller-Hinton broth (MHB) according to McFarland #0.5. Each strain was added so as to attain about 0.5-1×10^5 CFU/mL (final concentration) in terms of Escherichia coli. Each peptide was prepared and added to a microplate or test tubes so as to attain a final concentration of 10 μg/mL, and the bacterial suspension was added thereto. The plate was incubated at 37° C. for 3 hours, and the amount of ATP in the culture media was measured. Relative values were calculated by comparison with the negative control, and these values were regarded as the viability.

[3] = Stability in rat serum (HPLC); type: in vitro ADME; conditions: 37° C.
Description: (§3) The stability of the polypeptides in serum was evaluated. In human serum (purchased from KAC Co., Ltd.), or in rat serum obtained by collecting blood from a rat, then leaving the collected blood to stand at room temperature followed by centrifugation, each of the peptides was dissolved so as to attain a final concentration of 500 μg/mL, and the obtained solutions were left to stand at 37° C. After leaving to stand for 3 min or 10 min, these solutions were subjected to HPLC chromatogram analysis to detect peaks of the decomposition products, and calculate the ratio of the concentration of the peptides which remained in the solutions relative to the starting concentration. In addition, the half-lives of the peptides in serum were also calculated.

[4] = Stability in human serum (HPLC); type: in vitro ADME; conditions: 37° C.
Description: as §3

[5] = tested on: Normal human dermal fibroblasts (NHDFs); type: cell-based
Description: Next, the effect of these polypeptides on the growth of human umbilical vein endothelial cells (HUVECs) was studied. A cell growth activity of the polypeptides was examined using Cell Counting Kit (WST-1) available from Dojindo Laboratories. As a negative control (Control), polypeptide-free group was used. Cells (human umbilical vein endothelial cells: HUVECs) were plated in a 96-well plate (0.5×10^4 cells/well/100 μL, serum 1%). About 3 hours after plating the cells, the polypeptides (1, 3, 10, 30 or 100 μg/ml) and FGF (100 ng/ml) as a positive control were individually added thereto in an amount of 100 μL. To the unstimulated group, only a medium was added in an amount of 100 μL. The plate was left to stand in a CO2 incubator for about 48 hours. Thereafter, WST-1 reagent was added to each well in an amount of 20 μL, and then the plate was left to stand in a CO2 incubator for about 2 hours. Absorbances at wavelengths of 450 nm and 620 nm were measured using Wallac 1420 ARVOsx (Program: WST-1). A value of O.D.450-O.D.620 was calculated for each measurement. […] The cell growth activity was evaluated on the basis of the ratio of Net O.D.450 of polypeptide-containing groups relative to Net O.D.450 of the unstimulated group.
Then, the effect on the growth of normal human dermal fibroblasts (NHDFs) was also studied by the same method as described above.

[6] = tested on: Pseudomonas aeruginosa (clinical strain 8); assay: MIC measurement, broth microdilution; type: cell-based; conditions: 37° C. for 20 hours; tested twice, first/second value where not matched
[7] = tested on: Pseudomonas aeruginosa (clinical strain 1); assay: microbe, parasite or virus in culture; type: cell-based; conditions: 37° C. for 20 hours; tested twice, first/second value where not matched
Escherichia coli = assay: MIC measurement, broth microdilution; type: cell-based; conditions: 37° C. for 20 hours; tested twice, first/second value where not matched
Description: as §1, §2

Fusarium solani = type: cell-based; conditions: 37° C. for 20 hours; tested twice, first/second value where not matched
Description: as §1, §2

Pseudomonas aeruginosa = type: cell-based; conditions: 37° C. for 20 hours; tested twice, first/second value where not matched
Description: as §1, §2

Acinetobacter baumanni = type: cell-based; conditions: 37° C. for 20 hours; tested twice, first/second value where not matched
Description: as §1, §2

[8] = tested on: Pseudomonas aeruginosa (clinical strain 9); assay: MIC measurement, broth microdilution; type: cell-based; conditions: 37° C. for 20 hours; tested twice, first/second value where not matched
Clostridium ramosum = assay: microbe, parasite or virus in culture; type: cell-based; conditions: 37° C. for 20 hours; tested twice, first/second value where not matched
Description: as §1, §2

Fusobacterium nucleatum = assay: microbe, parasite or virus in culture; type: cell-based; conditions: 37° C. for 20 hours; tested twice, first/second value where not matched
Description: as §1, §2

[9] = tested on: Pseudomonas aeruginosa (clinical strain 6); assay: MIC measurement, broth microdilution; type: cell-based; conditions: 37° C. for 20 hours; tested twice, first/second value where not matched
[10] = tested on: Pseudomonas aeruginosa (clinical strain 12); assay: MIC measurement, broth microdilution; type: cell-based; conditions: 37° C. for 20 hours; tested twice, first/second value where not matched

Compound: Cc1onc(-c2ccccc2)c1C(=O)N[C@@H]1C(=O)N2[C@@H]1SC(C)(C)[C@@H]2C(=O)O [OX, oxacillin]
- MIC ([1]; Staphylococcus epidermidis): 0.15 to 0.5 µg/mL (≈ 0.374 to 1.25 µM)
- MIC (MRSA (clinical strain 1)): < 4 µg/mL
- MIC (Staphylococcus aureus): 0.15 to 0.5 µg/mL (≈ 0.374 to 1.25 µM)
- MIC (MSSA (clinical strain 2)): < 2 µg/mL
- MIC, MSSA (clinical strain 1) (MSSA (clinical strain 1)): 3/8
- MIC (MRSA (clinical strain 2)): > 8 µg/mL

Compound: CC[C@H](C)[C@H](NC(=O)[C@H](CC(C)C)NC(=O)[C@H](CCCCN)NC(=O)[C@H](CC(C)C)NC(=O)[C@@H](N)CCSC)C(=O)N[C@@H](Cc1ccccc1)C(=O)N[C@@H](CC(C)C)C(=O)N[C@@H](Cc1c[nH]cn1)C(=O)N[C@@H](CCCNC(=N)N)C(=O)N[C@@H](CC(C)C)C(=O)N[C@@H](CCCCN)C(=O)N[C@@H](CCCNC(=N)N)C(=O)N[C@@H](CCSC)C(=O)N[C@@H](CCCNC(=N)N)C(=O)N[C@@H](CCCCN)C(=O)N[C@@H](CCCNC(=N)N)C(=O)N[C@@H](CC(C)C)C(=O)N[C@H](CCCCN)C(=O)N[C@@H](CCCNC(=N)N)C(=O)N[C@@H](CCCCN)C(=O)O [SR-07] (H-MLKLIFLHRLKRMRKRL[dK]RK-OH; N-terminus and C-terminus assumed)
- viability [2]: 16.5%
- Ratio of peptide remaining relative to the starting concentration, rat serum, 0 min ([3]; 500 μg/mL, 0 min): 100
- remaining at 0.05 h, 500 μg/mL ([3]; rat, rat serum, 3 min, read-out: Ratio of peptide remaining relative to the starting concentration, rat serum, 3 min): 51%
- remaining at 10 min, 500 μg/mL ([3]; rat, rat serum, 10 min, read-out: Ratio of peptide remaining relative to the starting concentration, rat serum, 10 min): 16.5%
- half-life ([3]; rat, serum, 500 μg/mL): 4 min
- Ratio of peptide remaining relative to the starting concentration, human serum, 0 min ([4]; 500 μg/mL, 0 min): 100
- remaining at 0.05 h, 500 μg/mL ([4]; human, human serum, 3 min, read-out: Ratio of peptide remaining relative to the starting concentration, human serum, 3 min): 98%
- remaining at 10 min, 500 μg/mL ([4]; human, human serum, 10 min, read-out: Ratio of peptide remaining relative to the starting concentration, human serum, 10 min): 64.3%
- half-life ([4]; human, serum, 500 μg/mL): 15 min
- Concentration above which the polypeptide tended to exhibit toxicity, NHDFs (FIG. 4) [5]: > 30000 ng/mL

- MIC, Pseudomonas aeruginosa (clinical strain 8) [6]: 32/64
- MIC, Pseudomonas aeruginosa (clinical strain 1) [7]: 16/64
- MIC, Staphylococcus epidermidis [1]: 8/16
- MIC, Escherichia coli (Escherichia coli): 8/16
- MIC, Fusarium solani (Fusarium solani): 4/8
- MIC, Pseudomonas aeruginosa (Pseudomonas aeruginosa): 16/32
- MIC, Acinetobacter baumanni (Acinetobacter baumanni): 4/8
- MIC, Pseudomonas aeruginosa (clinical strain 9) [8]: 32/128
- MIC, Clostridium ramosum (Clostridium ramosum): 32/64
- MIC, Fusobacterium nucleatum (Fusobacterium nucleatum): 2/4
- MIC, Pseudomonas aeruginosa (clinical strain 6) [9]: 32/64
- MIC, MSSA (clinical strain 1) (MSSA (clinical strain 1)): 16/32
- MIC, Pseudomonas aeruginosa (clinical strain 12) [10]: 16/32
Compound: KNLRRIIRKIIHIIKKYG [AP00196]
